Experimental data taken from patent US7704978B2, “Methods for treating neuropsychiatric disorders” (The General Hospital Corporation, priority 1998, dated 2010).
Marks after values point to notes of the source that are not given here.

Columns and labels:
Schizophrenia Patients [1] = assay: Double-blind, placebo-controlled 6-week treatment of schizophrenia patients: clinical symptoms and cognition (SANS, PANSS, CGI, Wisconsin Card Sort Test); format: in vivo, human; details: for cognition, PANSS-cognitive subscale and Wisconsin Card Sort Test: 6 weeks of treatment; for WCST (Wisconsin Card Sort Test), change: initiation versus end of the 6-week study; for WCST (Wisconsin Card Sort Test), change / Cognitive symptoms (PANSS-cognitive subscale), change / Positive Symptoms (PANSS-positive subscale), change / reduction of the negative symptoms (on the SANS scale) / reduction of the positive symptoms (on the PANSS-positive subscale) / CGI, score after treatment: D-serine 30, D-alanine 60-100, N-methylglycine 30 mg/kg/day; for Negative Symptoms (SANS), change / Cognitive symptoms (PANSS-cognitive subscale), change / Positive Symptoms (PANSS-positive subscale), change / reduction of the negative symptoms (on the SANS scale) / reduction of the positive symptoms (on the PANSS-positive subscale): once a day by mouth for 6 weeks; for Negative Symptoms (SANS), change: D-serine 30 mg/kg/day, D-alanine 60-100 mg/kg/day, N-methylglycine 30 mg/kg/day, added to stable antipsychotic; for CGI, score after treatment: value after the arrow: after 6 weeks, once a day by mouth; for CGI, baseline score: value before the arrow: baseline of the treatment group
Excerpt: (§1) This study employed 37 patients who were diagnosed as having schizophrenia. All patients fulfilled the DSM-IV diagnosis of schizophrenia (APA, 1994, Diagnostic and Statistical Manual of Mental Disorders, Fourth Edition, Washington, D.C.). All of the patients also fulfilled the criteria of primary deficit syndrome, with a SANS score of more than 40 (Kirkpatrick et al., 1989, Psychiatry Research 30:119-123; Andreasen, 1983, Scales for the Assessment of Negative Symptoms (SANS), Iowa City, Iowa). All of the patients were poorly responsive to treatment by other antipsychotic drugs, and had been kept on a stable dose of an antipsychotic drug for at least 3 months prior to enrollment in this study.
(§2) Several scales were used to assess the severity of the disorder in each patient. At the beginning of the study (i.e., the baseline), the PANSS, SANS, and […] were used. Each scale also was completed at the end of each 2-week period throughout the study. These assessments were performed by a psychiatrist who was blind to the treatment assignment. The Wisconsin Card Sort Test was used to provide a cognitive rating of the patients; in general, schizophrenic patients perform poorly on this test. The Wisconsin Card Sort Test was administered only at the initiation of the study and at the end of the 6-week study. To measure side effects, the Simpson-Angus Scale was used to measure extrapyramidal symptoms (EPS; Simpson et al., 1970, Acta Psychiatrica Scandinavia Suppl. 212:11-19). The Abnormal Involuntary Movement Scale (AIMS) was used to measure dyskinesia (Simpson et al., 1970, Acta Psychiatrica Scandinavia Suppl. 212:11-19). The Barnes Scale was used to measure akathesia (Barnes, 1989, Brit. J. Psychiatry 154:672-676). The side effects of D-serine, D-alanine, and N-methylglycine treatments were assessed biweekly according to the UKU side effects rating scale (Scandinavian Society of Psychopharmacology Committee of Clinical Investigation: The UKU side effect rating scale: scale for the registration of unwanted effects of psychotropics. Acta. Psychiatr. Scand. 1987; Suppl. 334:81-94).
(§3) Using double-blind conditions, the patients were randomly assigned to receive placebo (fruit juice), D-serine (30 mg/kg/day), D-alanine (60-100 mg/kg/day), or N-methylglycine (30 mg/kg/day) once a day by mouth for a period of 6 weeks. As indicated by the results shown in Table 1, treatment with D-serine, D-alanine, or N-methylglycine improved the schizophrenic symptoms and cognitive deficit of the patients. […] These reductions in the negative and positive symptoms represented clinically significant improvement.

Schizophrenia Patients [2] = details: human, in vivo; for AIMS (dyskinesia), score after treatment / Barnes Scale (akathesia), score after treatment / EPS (Simpson-Angus Scale), score after treatment: 6 weeks
Excerpt: as §1, §2, §3

Row | SMILES | cognition, PANSS-cognitive subscale and Wisconsin Card Sort Test (Schizophrenia Patients [1]) | WCST (Wisconsin Card Sort Test), change (Schizophrenia Patients [1]) | Negative Symptoms (SANS), change (Schizophrenia Patients [1]) | Cognitive symptoms (PANSS-cognitive subscale), change (Schizophrenia Patients [1]) | Positive Symptoms (PANSS-positive subscale), change (Schizophrenia Patients [1]) | reduction of the negative symptoms (on the SANS scale) (Schizophrenia Patients [1]) | reduction of the positive symptoms (on the PANSS-positive subscale) (Schizophrenia Patients [1]) | CGI, score after treatment (Schizophrenia Patients [1]) | CGI, baseline score (Schizophrenia Patients [1]) | AIMS (dyskinesia), baseline score (Schizophrenia Patients [2]) | Barnes Scale (akathesia), baseline score (Schizophrenia Patients [2]) | EPS (Simpson-Angus Scale), baseline score (Schizophrenia Patients [2]) | side effects, UKU scale (Schizophrenia Patients [2]) | significant side effects after treatment of schizophrenia patients (Schizophrenia Patients [2]) | tardive dyskinesia, extrapyramidal and akathesia symptoms (Schizophrenia Patients [2]) | AIMS (dyskinesia), score after treatment (Schizophrenia Patients [2]) | Barnes Scale (akathesia), score after treatment (Schizophrenia Patients [2]) | EPS (Simpson-Angus Scale), score after treatment (Schizophrenia Patients [2])
1 | C[C@@H](N)C(=O)O [D-alanine] | improved cognition | +0.5* category | −12%* | −11%* | −11%* | 11% | 12% | 2.8 | 3.9 | 0.5 | 0.4 | 3.1-->3.1 | no side effects were noted | no significant side effects were detected | no newly emergent tardive dyskinesia or worsening of extrapyramidal or akathesia symptoms | 0.1 | 0.6 | 3.1-->3.1
2 | N[C@H](CO)C(=O)O [D-serine] | improved cognition | +0.9 category | −21%* | −12%* | −17%* | 21% | 17% | 2.6 | 4.8 | 0.3-->0.3 | 0.4 | 1.4 | no side effects were noted | no significant side effects were detected | no newly emergent tardive dyskinesia or worsening of extrapyramidal or akathesia symptoms | 0.3-->0.3 | 0.8 | 1.7
3 | CNCC(=O)O [N-methylglycine] | improved cognition | +0.7* category | −20%* | −12%* | −15%* | 20% | 15% | 2.7 | 4.2 | 0.4 | 0.5 | 2.1-->2.1 | no side effects were noted | no significant side effects were detected | no newly emergent tardive dyskinesia or worsening of extrapyramidal or akathesia symptoms | 0.3 | 0.6 | 2.1-->2.1
